Patent US20110319360A1, “Method of including apoptosis/Cell death in leukemia cell using a purine nucleoside analogue” (U.S. Department of Veterans Affairs, priority 2010, published 2011)
Where two headings read alike, the source gives them in different places.

Legend:
[1] = Prior in vivo toxicity studies in rodents
CD3-positive T-cell = experiment: Annexin V apoptosis of normal T-lymphocytes in PBMCs; format: cell-based, human; settings: 72 hours
Protocol: (§1) PBMCs were cultured at 10^6 cells/ml in a 12-well tissue culture plate. Cells were treated for 72 hours with vehicle control or drug for 72 hours, then harvested as above for staining. PBMCs were resuspended at 2×10^5 cells/tube in 100 μl buffer (HBSS, 0.5% bovine serum albumin, 0.1% sodium azide) and incubated for 30 min with CD3-FITC or CD19-FITC antibodies according to the manufacturer's protocol (BD Biosciences). Cells were then incubated with PE-annexin V and 7-AAD (BD Biosciences) in annexin V binding buffer (BD Biosciences) for 15 minutes prior to analysis of apoptosis on the Guava EasyCyte™ Plus system.

CD19-positive B-cell = experiment: Annexin V apoptosis of normal B-lymphocytes in PBMCs; format: cell-based, human; settings: 72 hours
Protocol: as §1

[2] = Reference 44; cited from earlier work
[3] = test system: CD34+ hematopoietic progenitor cells (myeloid colonies); experiment: Colony formation assay, myeloid colonies; format: cell-based, human
Protocol: (§2) CD34^+ hematopoietic progenitor cells were isolated from PBMCs from two healthy donors using the CD34 Microbead Kit (Miltenyi Biotec, Auburn, Calif.). 10^3 CD34^+-enriched cells were cultured in a 35 mm culture plate (1000 cells/plate) with or without LMP-420 or fludarabine in 1.1 ml Human Methylcellulose Complete Media (R&D Systems) according to the manufacturer's protocol. Plates were incubated for 14 days at 37° C. in humidified 5% CO2. Each treatment group was tested in triplicate. Colonies on plates were scored by two independent observers, blinded to the treatment groups, by microscopic evaluation under 10× and 20× power. Colonies were categorized as being of either erythroid or myeloid lineage.

human hERG = target: T1, human hERG (Homo sapiens, UniProt Q12809); experiment: hERG [3H] Astemizole radioligand binding; settings: 1.5 nM [3H] Astemizole, HEK-293 cells, 60 min, 25° C.; read-out: IC50 for inhibition of radioligand binding to the cardiac potassium channel
T1 construct: host or cells: HEK-293
T1 sequence (Q12809 whole entry): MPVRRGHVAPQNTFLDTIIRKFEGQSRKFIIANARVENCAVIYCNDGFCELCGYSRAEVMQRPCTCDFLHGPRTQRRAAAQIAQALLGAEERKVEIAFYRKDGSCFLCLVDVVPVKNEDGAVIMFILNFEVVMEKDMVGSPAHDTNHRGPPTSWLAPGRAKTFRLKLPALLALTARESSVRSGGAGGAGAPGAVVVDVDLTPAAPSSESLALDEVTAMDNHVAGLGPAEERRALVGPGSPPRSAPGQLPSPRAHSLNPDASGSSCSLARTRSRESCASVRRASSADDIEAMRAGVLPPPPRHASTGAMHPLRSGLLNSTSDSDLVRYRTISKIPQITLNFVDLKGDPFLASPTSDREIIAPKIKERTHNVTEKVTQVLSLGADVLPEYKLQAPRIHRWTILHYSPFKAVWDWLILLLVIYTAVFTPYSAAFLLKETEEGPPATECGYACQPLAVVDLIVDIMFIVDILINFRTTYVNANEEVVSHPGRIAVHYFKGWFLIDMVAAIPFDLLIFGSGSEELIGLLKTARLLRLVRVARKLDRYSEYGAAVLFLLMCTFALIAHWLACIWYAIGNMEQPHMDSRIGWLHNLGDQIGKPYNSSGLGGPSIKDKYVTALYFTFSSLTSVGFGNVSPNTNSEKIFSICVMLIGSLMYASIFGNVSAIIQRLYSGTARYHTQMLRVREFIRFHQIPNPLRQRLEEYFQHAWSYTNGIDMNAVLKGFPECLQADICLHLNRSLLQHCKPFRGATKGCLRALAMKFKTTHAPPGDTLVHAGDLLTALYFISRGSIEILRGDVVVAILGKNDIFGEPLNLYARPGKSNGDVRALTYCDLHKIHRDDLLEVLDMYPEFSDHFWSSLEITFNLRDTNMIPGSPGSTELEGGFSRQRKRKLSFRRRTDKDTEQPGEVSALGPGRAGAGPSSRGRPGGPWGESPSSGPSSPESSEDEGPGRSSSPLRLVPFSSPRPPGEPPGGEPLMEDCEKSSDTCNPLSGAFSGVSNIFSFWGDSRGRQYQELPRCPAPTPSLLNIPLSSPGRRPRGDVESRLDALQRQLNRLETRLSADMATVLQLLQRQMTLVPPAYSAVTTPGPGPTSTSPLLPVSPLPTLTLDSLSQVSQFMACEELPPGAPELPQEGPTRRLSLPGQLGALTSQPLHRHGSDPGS
Protocol: This assay was performed by MDS Pharma Services. Human recombinant HEK-293 cells over-expressing the human hERG receptor were incubated for 60 min at 25° C. with 1.5 nM [^3H] Astemizole in the presence or absence of the indicated concentrations of LMP-420. Nonspecific binding (<10%) was determined by binding of radioligand in 10 μM Astemizole. All samples were determined in duplicate.

[4] = test system: CD34+ hematopoietic progenitor cells (erythroid colonies); experiment: Colony formation assay, erythroid colonies; format: cell-based, human
Protocol: as §2

normal PBMCs = experiment: MTS cytotoxicity assay on PBMCs from normal donors; format: cell-based, human; settings: for EC50: Homo sapiens, PBMC
Protocol: For toxicity studies involving normal blood cells, normal volunteers were enrolled in an IRB-approved protocol for blood collection. PBMCs were isolated from heparin-anticoagulated blood by ficoll-Hypaque density gradient centrifugation.
(§3) 2.5×10^5 CLL cells were incubated in triplicate or quadruplicate in a 96-well tissue culture plate (Costar, Corning, N.Y.) with serial dilutions of LMP-420, fludarabine, and/or recombinant TNF-alpha (R&D Systems, Minneapolis, Minn.) in Hybridoma serum free media (SFM) (GIBCO/Invitrogen, Carlsbad, Calif.) containing 10% heat-inactivated fetal bovine serum (FBS) (Sigma) at 37° C. with 5% CO2. After 72 hours, 20 μl CellTiter 96® AQueous One Solution Cell Proliferation Assay (Promega, Madison, Wis.) MTS (3-(4,5 dimethylthiazol-2-yl)-5-(3-carboxymethoxyphenyl-2-(4-sulfophenyl)-2H-tetrazolium) reagent was added to each well and the absorbance was read at 490 nm on a Thermomax microplate reader (Molecular Devices, Sunnyvale, Calif.). We calculated fractional cytotoxicity as performed previously (Reference 12), comparing absorbance at 490 nm from treated cells to control cells incubated with media alone.
(§4) The concentration effective at killing 50% of CLL cells compared to media alone (ED50) was calculated when 50% fractional cytotoxicity occurred within the range of serial dilutions tested (Reference 12). If the ED50 fell below or above this range, it was set to either the lowest or the highest concentration tested, respectively, for the purposes of statistical analyses and graphical representation.

CLL cells = experiment: MTS cytotoxicity assay on primary CLL cells; format: cell-based; settings: Homo sapiens, CLL cell
Protocol: On the same day that heparin-anticoagulated venous blood was collected from participants, CLL cells were purified by methods described previously (Reference 11). Briefly, CLL cells were isolated from whole blood using the RosetteSep® B-cell enrichment cocktail (Stem Cell Technologies, Vancouver, BC, Canada) together with ficoll-Hypaque density gradient centrifugation. This method yielded CLL cell purity of greater than 95% CD5^+CD19^+ B-cells.
as §3, §4

For Nc1nc(Cl)c2ncn(CCCCCB(O)O)c2n1 [LMP-420, 2-amino-6-chloro-9-[5(dihydroxyboryl)-pentyl] purine], the “peak plasma level at non-toxic doses” value [1] was “greater than 10 μM”, the “average percent drug-specific apoptosis, T-cells” value (CD3-positive T-cell; 1 μM, n=3) was −1% and the “apoptosis in normal T-lymphocytes” value (CD3-positive T-cell; concentrations up to 90 μM) was “did not induce significant apoptosis”. For the same compound, the “average percent drug-specific apoptosis, B-cells” value (CD19-positive B-cell; 1 μM, n=3) was 11%, the “apoptosis in normal B-lymphocytes” value (CD19-positive B-cell; concentrations up to 90 μM) was “did not induce significant apoptosis” and the oral bioavailability [2] was “orally bioavailable”. The tolerability in vivo [2] was “well-tolerated in vivo”, the “myeloid colony IC50 relative to CLL ED50” value [3] was “greater than 40 fold” and the IC50 ([3]; Homo sapiens, 336 h, 14 days, healthy donors (n=2), read-out: mean IC50 for normal myeloid colony formation) was 25 µM. The IC50 (human hERG) was over 100 µM, the “erythroid colony IC50 relative to CLL ED50” value [4] was “greater than 40 fold” and the IC50 ([4]; Homo sapiens, 336 h, 14 days, healthy donors (n=2), read-out: mean IC50 for normal erythroid colony formation) was 10 µM. For the same compound, the “potentiation of fludarabine cytotoxicity on normal PBMCs” value (normal PBMCs; 62 or 250 nM LMP-420 with fludarabine, 72 hours, n=3) was “did not potentiate”, the EC50 (normal PBMCs; 72 hours, MTS, not reached at up to 512 μM, read-out: median ED50 on normal PBMCs) was over 512 µM and the EC50 (normal PBMCs; mean, PBMCs from healthy blood donors (n = 3-6), read-out: ED50 (μM), PBMC) was over 512 µM. It also gave an EC50 (CLL cells; 72 h, five patients of the nucleosome ELISA set, 72 hours, read-out: mean ED50, fractional cytotoxicity by MTS) of about 0.85 µM, an EC50 (CLL cells; 72 h, primary CLL cells, 72 hours, MTS, mean of 35 samples, read-out: mean concentration required to induce 50% cytotoxicity (ED50)) of 0.245 µM and an EC50 (CLL cells; CLL samples with favorable risk cytogenetic aberrations, n=27, read-out: median MTS ED50) of 0.162 µM. The EC50 (CLL cells; CLL samples with favorable risk cytogenetic aberrations, n=27, read-out: range of MTS ED50) was 0.027 to 2.52 µM, the EC50 (CLL cells; CLL samples with poor risk cytogenetic aberrations, n=5, read-out: median MTS ED50) was 0.332 µM and the EC50 (CLL cells; mean value from the MTS experiments, read-out: ED50 (μM), CLL) was 0.25 µM.
